Assay [1] concerns P. aeruginosa 50692172 (NDM-1). Put plainly: Microbroth dilution, meropenem MIC with/without compound. Format: cell-based. The settings on record: compound at 125 μM; 50692172 P. aeruginosa NDM-1. The procedure:
(§1) General Protocol for Microbroth Dilution Method for Evaluating Antibacterial Activity of Compounds or Synergistic Effect of Compound-Antibiotic Combination
(§2) • Plate bacterial strain(s) on appropriate media: • Gram-negative bacteria with ESBLs or carbapenemases: green agar plates with 100 mg/L ampicillin • Gram-negative bacteria without β-lactamases: green agar plates • Gram-positive bacteria (Staphylococci and Enterococci): blood agar plates • Incubate o.n. at 37° C. Day 2: Prepare the Bacterial Inoculum: • Prepare a 0.5 McFarland suspension of bacteria in 0.85% NaCl. (Should be used within 15 min of preparation). • Dilute the 0.5 McFarland suspension 1:100 into MH broth. Check the inoculum by diluting the prepared bacterial suspension 1:100 (10 μl bacterial suspension+990 μl 0.85% NaCl). Plate 10 μl of the dilution on MH agar plates (×2). Incubate o.n. at 37° C., count the colonies and calculate the final CFU/ml inoculum in the plate by multiplying the average number of colonies with 10000 and divide by 2. The final inoculum should be between 3-7×10^5 CFU/ml. • Add 50 μl of the prepared bacterial suspension to each well in the microtiter plate except negative growth control. Preparation of Compounds/Antibiotics • Calculate the desired concentration-range and volume of the compounds/antibiotics in the assay. […] Dilute the stock solution in MH broth. Make subsequent 2-fold dilutions in MH broth of the desired concentrations if a concentration range is to be tested (remember the extra dilution factor in the assay plate). Always include extra volume for pipetting. Take into consideration stock solutions that are made in buffers that have an effect on bacterial growth (e.g. DMSO). Assay: • Determining the MIC of compounds/antibiotics alone: • Add 25 μl of each concentration of compound/antibiotic to row 2-11 (highest concentration in row 2) • Add 25 μl MH broth to row 2-11 • Add 50 μl MH broth to row 12 (positive control) • Add 100 μl MH broth to row 1 • Add 50 μl bacterial suspension to row 2-12. • Determining the MIC of antibiotics+compounds: • Add 25 μl of each concentration of antibiotic to row 2-11 (highest concentration in row 2) • Add 25 μl of compound to row 2-11 • Add 50 μl MH broth to row 12 (positive control) • Add 100 μl MH broth to row 1 • Add 50 μl bacterial suspension to row 2-12. • Incubate the plate for 20 hrs at 37° C. and determine the MIC in the presence and absence of inhibitor.
For orientation: Broth dilution looks for growth in wells or tubes with falling amounts of substance.

The subject of assay [2] is K. pneumoniae A3-81 (VIM-1). Described as above. Format: cell-based. Conditions: compound at 125 μM; A3-81 K. pneumoniae VIM-1. The procedure:
as §1, §2

Assay [3] concerns E. coli 50639799 (VIM-1). The description is as above. The settings on record: compound at 125 μM; 50639799 E. coli VIM-1. Format: cell-based. The procedure:
as §1, §2

For assay [4], the system named is P. aeruginosa K34-7 (VIM-2). The assay is described as above. Format: cell-based. The settings on record: compound at 125 μM; K34-7 P. aeruginosa VIM-2. The procedure: as §1, §2
The test system of assay [5] is E. coli K71-77 (NDM-1). Described as above. Format: cell-based. Conditions: compound at 125 μM; K71-77 E. coli NDM-1. The procedure: as §1, §2
Assay [6] relates to K. pneumoniae K66-45 (NDM-1). Described as above. Format: cell-based. Conditions: compound at 125 μM; K66-45 K. pneumoniae NDM-1. The procedure: as §1, §2
The target in assay [7] is VIM-2 in E. coli SNO3 containing pET26b-blaVIM-2 (Escherichia coli, UniProt Q5U7L7). Put plainly: MBL inhibition in whole E. coli cells expressing MBL (nitrocefin hydrolysis). Format: cell-based. The settings on record: whole cell, test substance 250 μM.
Assay [8] addresses NDM-1 (Klebsiella pneumoniae, UniProt C7C422). The assay can be described thus: IC50 determination against purified MBL, nitrocefin reporter substrate. Format: biochemical. Conditions: purified enzyme 1 nM, nitrocefin 50 μM, 25° C. The procedure:
(§3) General Protocol for Determination of IC50-Values
(§4) Buffers: A: 50 mM HEPES pH 7.2, 100 μM ZnCl2
(§5) • B: 50 mM HEPES pH 7.2, 100 μM ZnCl2 and 400 μg/ml Bovine Serum Albumin (BSA) Equipment: SpectraMax 96 well reader • 96 well plates • Cuvettes • General plastics: dilution tubes, eppendorfs etc. Method: Inhibitors: a. Dissolved in 100% DMSO at a concentration of 10 mM • b. Dissolve the inhibitor in buffer A to a concentration of 25% DMSO. No more than 2.5% DMSO is tolerable in the assay. 100% DMSO (10 mM); […]; […] • c. Make a 2-fold dilution series of the inhibitor. At least 8 dilutions should be made. See example in table 1 Reporter Substrate (Nitrocefin): • a. Dilute a small amount of nitrocefin in 1 ml of DMSO • b. Add 990 μl buffer A+10 μl of nitrocefin to a cuvette. • c. Measure initial OD at absorbance specific for the substrate • d. Add purified enzyme to the cuvette and let the hydrolysis run to completion (the more concentrated the enzyme the faster the hydrolysis will run) • e. Measure the end OD • f. Calculate the concentration of substrate: [(End OD−Initial OD)×dilution factor]/Δε (Δε Nitrocefin=17400) • g. Dilute nitrocefin to 100 μM in buffer A Enzyme: Dilute purified enzyme in buffer B to a concentration of 10 nM. Assay: a. Set the settings and temperature on the Spectramax/software: • I. Kinetics • II. λ: 482 • III. Time: 20 min • IV. Interval: 2-5 sec. • V. Mix before 1st read: 5 sec. • VI. Temp: 25° C. • b. Add 30 μl buffer A, 10 μl purified enzyme (final concn. 1 nM), and 10 μl inhibitor to assay wells (duplicates for each inhibitor concentration). Also include a negative control. Wells with no added inhibitor, just 40 μl buffer A. See illustration in table 1. • c. Incubate the plate in the reader for 5 min. • d. Add 50 μl nitrocefin (final concn. 50 μM) to assay wells. This should be done quickly—preferably with an electronic multi-channel pipette. • e. Start the readings immediately. Determine: the initial velocity (V0) for each inhibitor concentration and calculate IC50.

Assay [9] concerns the target VIM-2 (Escherichia coli, UniProt Q5U7L7). The assay is described as above. Format: biochemical. The settings on record: purified enzyme 1 nM, nitrocefin 50 μM, 25° C. The procedure:
as §3, §4, §5

Assay [10] has as its target GIM-1 (Pseudomonas aeruginosa, UniProt Q704V1). Described as above. Format: biochemical. Conditions: purified enzyme 1 nM, nitrocefin 50 μM, 25° C. The procedure: as §3, §4, §5
Assay [11] has as its system K. pneumoniae 50732159 (MBL negative). Put plainly: Microbroth dilution, meropenem MIC with/without compound. Format: cell-based. The settings on record: compound at 125 μM; 50732159 K. pneumoniae MBL negative. The procedure: as §1, §2
Assay [12] has as its system E. coli 50739467 (MBL negative). Described as above. Format: cell-based. Conditions: compound at 125 μM; 50739467 E. coli MBL negative. The procedure:
as §1, §2

For assay [13], the system named is P. aeruginosa 50808021 (MBL negative). Described as above. Format: cell-based. Conditions: compound at 125 μM; 50808021 P. aeruginosa MBL negative. The procedure:
as §1, §2

Assay [14] concerns MBL-negative clinical strains. Put plainly: Synergy with meropenem in MBL-negative clinical strains. Format: cell-based. The procedure: as §1
(§6) • Plate bacterial strain(s) on appropriate media: • Gram-negative bacteria with ESBLs or carbapenemases: green agar plates with 100 mg/L ampicillin • Gram-negative bacteria without β-lactamases: green agar plates • Gram-positive bacteria (Staphylococci and Enterococci): blood agar plates • Incubate o.n. at 37° C. Day 2: Prepare the Bacterial Inoculum: • Prepare a 0.5 McFarland suspension of bacteria in 0.85% NaCl. (Should be used within 15 min of preparation). • Dilute the 0.5 McFarland suspension 1:100 into MH broth. Check the inoculum by diluting the prepared bacterial suspension 1:100 (10 μl bacterial suspension+990 μl 0.85% NaCl). Plate 10 μl of the dilution on MH agar plates (×2). Incubate o.n. at 37° C., count the colonies and calculate the final CFU/ml inoculum in the plate by multiplying the average number of colonies with 10000 and divide by 2. The final inoculum should be between 3-7×10^5 CFU/ml. • Add 50 μl of the prepared bacterial suspension to each well in the microtiter plate except negative growth control. Preparation of Compounds/Antibiotics • Calculate the desired concentration-range and volume of the compounds/antibiotics in the assay. […] Dilute the stock solution in MH broth. […]

Assay [15] concerns MBL-producing P. aeruginosa, K. pneumoniae and E. coli. Put plainly: Synergy with meropenem in MBL-producing clinical strains. Format: cell-based. Conditions: compound 125 μM. The procedure:
as §1, §6

Assay [16] concerns the target GIM-1 in E. coli SNO3 containing pET26b-blaGIM-1 (Pseudomonas aeruginosa, UniProt Q704V1). Put plainly: MBL inhibition in whole E. coli cells expressing MBL (nitrocefin hydrolysis). Conditions: whole cell, test substance 250 μM. Format: cell-based.

Sequence of NDM-1 (C7C422 whole entry, looked up, species assumed): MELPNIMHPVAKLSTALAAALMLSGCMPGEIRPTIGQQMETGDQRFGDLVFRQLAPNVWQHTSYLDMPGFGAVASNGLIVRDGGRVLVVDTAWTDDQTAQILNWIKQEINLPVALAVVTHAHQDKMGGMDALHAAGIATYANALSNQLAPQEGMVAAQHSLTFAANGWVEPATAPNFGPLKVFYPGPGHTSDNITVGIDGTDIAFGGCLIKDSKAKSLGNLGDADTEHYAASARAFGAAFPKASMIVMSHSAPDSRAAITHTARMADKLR
Sequence of GIM-1 in E. coli SNO3 containing pET26b-blaGIM-1 (Q704V1 19-250 limits assumed): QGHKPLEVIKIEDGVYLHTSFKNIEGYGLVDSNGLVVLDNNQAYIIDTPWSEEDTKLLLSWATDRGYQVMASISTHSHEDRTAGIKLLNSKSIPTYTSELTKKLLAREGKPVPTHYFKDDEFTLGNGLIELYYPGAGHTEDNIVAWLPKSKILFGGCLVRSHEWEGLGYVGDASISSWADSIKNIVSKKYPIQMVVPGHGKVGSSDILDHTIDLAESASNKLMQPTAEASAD
Sequence of GIM-1 (Q704V1 19-250 limits assumed): as above

On to `C[C@H](CS)C(=O)N1CCC[C@H]1C(=O)O` [Captopril], for which the “Meropenem MIC (mg/L) in presence of compound” value was 32 to 64 mg/L in [1]; 64 to 128 mg/L in assay [2]; 16 mg/L in [3]; 32 mg/L in assay [4]; 2 to 4 mg/L in [5]; 64 mg/L in assay [6].
`C[C@@H](N)C(=O)N[C@H](C)C(=O)NCCc1ccc(NC(=O)CN(Cc2ccccn2)Cc2ccccn2)cc1.Cl` [Example 24, (R)-1-(((R)-1-((4-(2-(bis(pyridin-2-ylmethyl)amino)acetamido)phenethyl)amino)-1-oxopropan-2-yl)amino)-1-oxopropan-2-aminium chloride]: the results for the inhibition at 250 µM in assay [7] and in assay [16] were 98.2% and 69.2%, respectively. Also, the 50% inhibitory concentration (IC50) in assay [8] was 0.52 µM; in assay [9], 22.8 µM; in assay [10], 0.4 µM. Moreover, the figures for the “Meropenem MIC (mg/L) in presence of compound” value in assay [11], in assay [12] and in assay [13] were 32 mg/L, 0.5 mg/L and 128 to 256 mg/L, respectively. For the same compound, the “synergistic effect with meropenem” value in assay [14] is “No synergistic effect”. Further, the “synergistic activity with meropenem” value in assay [15] is reported as “strong synergistic potentiation of meropenem”.

In general, inhibition refers to the relative decrease from the control value, in per cent. High values mean strong suppression, low ones little suppression. What is called IC50 is the concentration at which inhibition is half-maximal.

These data come from US10227327B2, “Inhibitors of metallo-beta-lactamase (MBL) comprising a zinc chelating moiety” (Universitetet I Oslo, priority 2013, dated 2019).
